Molecular target: T1, human PDE10A enzyme (Homo sapiens, UniProt Q9Y233)
T1 construct: Human PDE10A full-length gene was transfected into Sf9 or COS-7 cells; His-tag; made in house; host or cells: Sf9 or COS-7 cells
Assay: PDE10A Enzyme Activity Inhibition Test (SPA, [3H]cGMP substrate)
Type: biochemical
Settings: at 100 nM compound; read-out: PDE10A enzyme activity inhibition rate
Experimental: PDE10A Enzyme Activity Inhibition Test
Human PDE10A full-length gene was transfected into Sf9 or COS-7 cells, the cells were disrupted and centrifuged, and human PDE10A enzyme was obtained from the residue. The enzyme extracted from Sf9 cells was partially purified using His-tag affinity column. The enzyme was stored at −70° C. until use. The PDE activity was measured using an SPA (Scintillation Proximity Assay) (GE Healthcare). To measure the inhibitory activity of the compound, 10 μL of serially diluted compound was reacted with 20 μL of PDE enzyme in an assay buffer (50 mM HEPES-NaOH, 8.3 mM MgCl2, 1.7 mM EGTA, 0.1% BSA (pH 7.4)) for 30 min at room temperature. The final concentration of DMSO in the reaction mixture was 1 percent. The compounds were evaluated in duplicate in 96-well half-area plates (Corning). To start the reaction, 10 μL of substrate [^3H] cGMP (25 and 50 nM; GE Healthcare and PerkinElmer, respectively) was added to 40 μL. After 60 min of reaction at room temperature, yttrium SPA beads containing zinc sulphate were added (6 mg/mL, 20 μL) to terminate the PDE reaction. After standing still for 1 hr, the measurement was performed using a scintillation counter (PerkinElmer) and the PDE10A enzyme activity inhibition rate was calculated. The inhibition rate was calculated based on the control containing enzyme and DMSO as 0% and the control without enzyme as 100%.

T1 sequence (Q9Y233 267-1055): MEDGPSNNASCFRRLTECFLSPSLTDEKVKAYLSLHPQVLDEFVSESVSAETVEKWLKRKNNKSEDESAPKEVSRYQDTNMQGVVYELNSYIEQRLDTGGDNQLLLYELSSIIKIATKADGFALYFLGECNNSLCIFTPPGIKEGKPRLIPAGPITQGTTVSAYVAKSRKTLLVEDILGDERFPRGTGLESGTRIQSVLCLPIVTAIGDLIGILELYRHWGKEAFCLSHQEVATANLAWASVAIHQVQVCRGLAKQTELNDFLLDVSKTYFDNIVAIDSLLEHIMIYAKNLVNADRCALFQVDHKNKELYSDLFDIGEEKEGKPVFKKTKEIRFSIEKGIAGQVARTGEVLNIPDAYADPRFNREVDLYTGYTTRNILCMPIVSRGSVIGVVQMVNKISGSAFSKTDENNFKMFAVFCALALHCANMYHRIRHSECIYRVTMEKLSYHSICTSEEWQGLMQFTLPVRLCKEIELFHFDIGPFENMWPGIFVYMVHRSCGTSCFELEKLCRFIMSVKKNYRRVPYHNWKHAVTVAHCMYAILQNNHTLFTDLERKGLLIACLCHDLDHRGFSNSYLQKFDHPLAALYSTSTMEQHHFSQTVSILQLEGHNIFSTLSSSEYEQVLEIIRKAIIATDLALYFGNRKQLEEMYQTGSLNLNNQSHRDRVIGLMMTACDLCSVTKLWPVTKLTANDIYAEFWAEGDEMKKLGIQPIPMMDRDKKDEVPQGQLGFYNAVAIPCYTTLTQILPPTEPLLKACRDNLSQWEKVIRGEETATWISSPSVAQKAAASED

Row | inhibition at 0.1 µM [%] | Structure (SMILES)
1 | ≥ 50 | O=c1c(-c2ccnn2-c2ccccc2)nn(-c2cccc(C(F)(F)F)c2)c2ccoc12 [Example 1, 3-(1-phenyl-1H-pyrazol-5-yl)-1-[3-(trifluoromethyl)phenyl]furo[3,2-c]pyridazin-4(1H)-one]
2 | ≥ 50 | O=c1c(-c2ccnn2-c2ccccc2)nn(-c2cccc(C(F)(F)F)c2)c2c1OCC2 [Example 2, 3-(1-phenyl-1H-pyrazol-5-yl)-1-[3-(trifluoromethyl)phenyl]-6,7-dihydrofuro[3,2-c]pyridazin-4(1H)-one]
3 | ≥ 50 | O=c1cc2n(nc1-c1ccnn1-c1ccccc1)-c1ccccc1OC2 [Example 11, 2-(1-phenyl-1H-pyrazol-5-yl)pyridazino[6,1-c][1,4]benzoxazin-3(5H)-one]
4 | < 50 | COc1c(-c2ccnn2-c2ccccc2)oc(-c2ccccc2)cc1=O [Example 12, 3-methoxy-6-phenyl-2-(1-phenyl-1H-pyrazol-5-yl)-4H-pyran-4-one]
5 | < 50 | O=c1[nH]cc(-c2ccccc2)nc1-c1ccnn1-c1ccccc1 [Example 13, 5-phenyl-3-(1-phenyl-1H-pyrazol-5-yl)pyrazin-2(1H)-one]
6 | < 50 | O=c1cc(-c2ccccc2)oc(-c2ccnn2-c2ccccc2)c1O [Example 14, 3-hydroxy-6-phenyl-2-(1-phenyl-1H-pyrazol-5-yl)-4H-pyran-4-one]
7 | < 50 | O=c1[nH]nc(-c2ccccc2)cc1-c1ccnn1-c1ccccc1 [Example 15, 6-phenyl-4-(1-phenyl-1H-pyrazol-5-yl)pyridazin-3(2H)-one]
8 | ≥ 50 | O=c1[nH]cc(-c2ccccc2)cc1-c1ccnn1-c1ccccc1 [Example 16, 5-phenyl-3-(1-phenyl-1H-pyrazol-5-yl)pyridin-2(1H)-one]
9 | < 50 | O=c1cc(-c2ccnn2-c2ccccc2)nc(-c2ccccc2)[nH]1 [Example 17, 2-phenyl-6-(1-phenyl-1H-pyrazol-5-yl)pyrimidin-4(3H)-one]
10 | < 50 | O=c1ccn(-c2cccc(C(F)(F)F)c2)cc1-c1ccnn1-c1ccccc1 [Example 18, 3-(1-phenyl-1H-pyrazol-5-yl)-1-[3-(trifluoromethyl)phenyl]pyridin-4(1H)-one]
11 | < 50 | O=c1cnn(-c2cccc(C(F)(F)F)c2)cc1-c1ccnn1-c1ccccc1 [Example 19, 5-(1-phenyl-1H-pyrazol-5-yl)-1-[3-(trifluoromethyl)phenyl]pyridazin-4(1H)-one]
12 | < 50 | O=c1ccc(-c2ccccc2F)cn1-c1ccnn1-c1ccccc1 [Example 20, 5-(2-fluorophenyl)-1-(1-phenyl-1H-pyrazol-5-yl)pyridin-2(1H)-one]
13 | < 50 | O=c1ccc(-c2cccc(C(F)(F)F)c2)nn1-c1ccnn1-c1ccccc1 [Example 21, 2-(1-phenyl-1H-pyrazol-5-yl)-6-[3-(trifluoromethyl)phenyl]pyridazin-3(2H)-one]
14 | ≥ 50 | COc1cn(Cc2ccccc2)nc(-c2ccnn2-c2ccccc2)c1=O [Example 23, 1-benzyl-5-methoxy-3-(1-phenyl-1H-pyrazol-5-yl)pyridazin-4(1H)-one]
15 | ≥ 50 | COc1cn(C2=CCN(Cc3ccccc3)CC2)nc(-c2ccnn2-c2ccccc2)c1=O [Example 25, 1-(1-benzyl-1,2,3,6-tetrahydropyridin-4-yl)-5-methoxy-3-(1-phenyl-1H-pyrazol-5-yl)pyridazin-4(1H)-one]
16 | < 50 | O=c1ccn(C2CCN(Cc3ccccc3)CC2)nc1-c1ccnn1-c1ccccc1 [Example 28, 1-(1-benzylpiperidin-4-yl)-3-(1-phenyl-1H-pyrazol-5-yl)pyridazin-4(1H)-one]

Row | inhibition at 0.1 µM [%] | Structure (SMILES)
17 | ≥ 50 | O=c1ccn(C2CCN(c3ccccc3)CC2)nc1-c1ccnn1-c1ccccc1 [Example 31, 1-(1-phenylpiperidin-4-yl)-3-(1-phenyl-1H-pyrazol-5-yl)pyridazin-4(1H)-one]
18 | < 50 | O=c1ccn(C2CCCN(c3ccccc3)C2)nc1-c1ccnn1-c1ccccc1 (centres unmarked) [Example 46, 1-(1-phenylpiperidin-3-yl)-3-(1-phenyl-1H-pyrazol-5-yl)pyridazin-4(1H)-one]
19 | < 50 | O=C(c1ccccc1)N1CCC(n2ccc(=O)c(-c3ccnn3-c3ccccc3)n2)CC1 [Example 49, 1-[1-(phenylcarbonyl)piperidin-4-yl]-3-(1-phenyl-1H-pyrazol-5-yl)pyridazin-4(1H)-one]
20 | ≥ 50 | COc1cn(C2CCN(c3nccs3)CC2)nc(-c2ccnn2-c2ccccc2)c1=O [Example 53, 5-methoxy-3-(1-phenyl-1H-pyrazol-5-yl)-1-[1-(1,3-thiazol-2-yl)piperidin-4-yl]pyridazin-4(1H)-one]
21 | ≥ 50 | COc1cn(C2CCN(c3ncccc3C#N)CC2)nc(-c2ccnn2-c2ccccc2)c1=O [Example 56, 2-{4-[5-methoxy-4-oxo-3-(1-phenyl-1H-pyrazol-5-yl)pyridazin-1(4H)-yl]piperidin-1-yl}pyridine-3-carbonitrile]
22 | ≥ 50 | COc1cn(C2CCc3ccccc3C2)nc(-c2ccnn2-c2ccccc2)c1=O (centres unmarked) [Example 58, 5-methoxy-3-(1-phenyl-1H-pyrazol-5-yl)-1-(1,2,3,4-tetrahydronaphthalen-2-yl)pyridazin-4(1H)-one]
23 | < 50 | COc1cn(CC2CC2)nc(-c2ccnn2-c2ccccc2)c1=O [Example 59, 1-(cyclopropylmethyl)-5-methoxy-3-(1-phenyl-1H-pyrazol-5-yl)pyridazin-4(1H)-one]
24 | < 50 | COc1cn(S(=O)(=O)c2ccccc2)nc(-c2ccnn2-c2ccccc2)c1=O [Example 60, 5-methoxy-3-(1-phenyl-1H-pyrazol-5-yl)-1-(phenylsulfonyl)pyridazin-4(1H)-one]
25 | ≥ 50 | COc1cn(Cc2cccc(-c3ccccc3)c2)nc(-c2ccnn2-c2ccccc2)c1=O [Example 61, 1-(biphenyl-3-ylmethyl)-5-methoxy-3-(1-phenyl-1H-pyrazol-5-yl)pyridazin-4(1H)-one]
26 | < 50 | O=c1ccn(C2CCN(c3ccccc3C(F)(F)F)CC2)nc1-c1ccnn1-c1ccccc1 [Example 64, 3-(1-phenyl-1H-pyrazol-5-yl)-1-{1-[2-(trifluoromethyl)phenyl]piperidin-4-yl}pyridazin-4(1H)-one]
27 | < 50 | COc1cn(C2CCCc3ccccc32)nc(-c2ccnn2-c2ccccc2)c1=O (centres unmarked) [Example 97, 5-methoxy-3-(1-phenyl-1H-pyrazol-5-yl)-1-(1,2,3,4-tetrahydronaphthalen-1-yl)pyridazin-4(1H)-one]
28 | ≥ 50 | COc1cn(C2CN(c3ncccc3C(F)(F)F)C2)nc(-c2ccnn2-c2ccccc2)c1=O [Example 98, 5-methoxy-3-(1-phenyl-1H-pyrazol-5-yl)-1-{1-[3-(trifluoromethyl)pyridin-2-yl]azetidin-3-yl}pyridazin-4(1H)-one]
29 | < 50 | COc1cn(Cc2ccccc2C(F)(F)F)nc(-c2ccnn2-c2ccccc2)c1=O [Example 102, 5-methoxy-3-(1-phenyl-1H-pyrazol-5-yl)-1-[2-(trifluoromethyl)benzyl]pyridazin-4(1H)-one]
30 | < 50 | O=c1cc(-c2ccccc2)sc(-c2ccnn2-c2ccccc2)c1 [Example 140, 2-phenyl-6-(1-phenyl-1H-pyrazol-5-yl)-4H-thiopyran-4-one]
31 | < 50 | COc1nc(-c2ccccc2)cn(-c2ccnn2-c2ccccc2)c1=O [Example 141, 3-methoxy-5-phenyl-1-(1-phenyl-1H-pyrazol-5-yl)pyrazin-2(1H)-one]
32 | < 50 | COc1cn(-c2cccc(C(F)(F)F)c2)nc(C2=NC(C)(C)C(=O)N2c2ccccc2)c1=O [Example 142, 3-(4,4-dimethyl-5-oxo-1-phenyl-4,5-dihydro-1H-imidazol-2-yl)-5-methoxy-1-[3-(trifluoromethyl)phenyl]pyridazin-4(1H)-one]

— patent US9150588B2, “Substituted pyridazin-4(1H)-ones as phosphodiesterase 10A inhibitors” (TAKEDA PHARMACEUTICAL COMPANY LIMITED, priority 2010, dated 2015)
